We go through 13 compounds from patent publication US12486290B2, “Isoindolinone and indazole compounds for the degradation of EGFR” (C4 THERAPEUTICS, INC., priority 2019, dated 2025).

Common to all, as to format: cell-based
The target of experiment [1] is T1, EGFR L858R (NCI-H3255 cells) (Homo sapiens, UniProt P00533, L858R).
T1 construct: NCI-H3255 (harboring EGFR heterozygous L858R mutation); host or cells: NCI-H3255
The experiment is described as follows: EGFR (L858R) degradation analysis, Total EGFR (L858R) HTRF, NCI-H3255 cells. The note with it: 6 hours. The text has this:
(§1) NCI-H1975 (harboring EGFR heterozygous T790M/L858R mutations) and NCI-H3255 (harboring EGFR heterozygous L858R mutation) were purchased from ATCC and NCI, respectively. NCI-H1975+CS (harboring EGFR heterozygous T/790M/L858R/C797S mutations) was generated using CRISPR technology to introduce the additional C797S mutation by Horizon Discovery. RPMI 1640 no-phenol red medium and fetal bovine serum (FBS) were purchased from Gibco (Grand Island, NY, USA). Cell culture flasks and 384-well microplates were acquired from VWR (Radnor, PA, USA). Total EGFR (L858R) HTRF assay kits were purchased from Cisbio (Bedford, MA, USA).
(§2) Degradation of EGFR protein containing L858R mutation was determined based on quantification of FRET signal using Total EGFR (L858R) HTRF assay kit. Test compounds were added to the 384-well plate from a top concentration of 10 μM with 11 points, half log titration in duplicates. NCI-H1975, NCI-H1975+CS or NCI-H3255 cells were added into 384-well plates at a cell density of 10000, 10000 or 1000 cells per well, respectively. The plates were kept at 37° C. with 5% CO2 for 6 hours. Cells treated in the absence of the test compound were the negative control. Positive control was set by wells containing all reagents but no cells. FRET signal was acquired on EnVision™ Multilabel Reader (PerkinElmer, Santa Clara, CA, USA).
Background: In TR-FRET formats the signal depends on donor and acceptor labels being close together.

Experiment [2] has as its target T2, EGFR T790M/L858R/C797S (NCI-H1975+CS cells) (Homo sapiens, UniProt P00533, C797S/L858R/T790M).
T2 construct: NCI-H1975+CS (harboring EGFR heterozygous T/790M/L858R/C797S mutations) was generated using CRISPR technology; host or cells: NCI-H1975+CS (CRISPR-edited NCI-H1975)
The experiment is described as follows: EGFR (L858R) degradation analysis, Total EGFR (L858R) HTRF, NCI-H1975+CS cells. The note with it: 6 hours, read-out: H1975 C797S clone EGFR DC50.
From the text: as §1, §2

For experiment [3], the target named is T3, EGFR T790M/L858R (NCI-H1975 cells) (Homo sapiens, UniProt P00533, L858R/T790M).
T3 construct: NCI-H1975 (harboring EGFR heterozygous T790M/L858R mutations); host or cells: NCI-H1975
In words: EGFR (L858R) degradation analysis, Total EGFR (L858R) HTRF, NCI-H1975 cells. The note with it: 6 hours. An outline of the steps: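 Cells (10000/well NCI-H1975 and NCI-H1975+CS, 1000/well NCI-H3255) treated with 11-point half-log titrations from 10 μM top, in duplicate, for 6 hours at 37° C., 5% CO2. Total EGFR (L858R) quantified by HTRF FRET; untreated cells as negative and cell-free wells as positive control.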

T2 sequence (P00533 25-1210 T790M/C797S/L858R): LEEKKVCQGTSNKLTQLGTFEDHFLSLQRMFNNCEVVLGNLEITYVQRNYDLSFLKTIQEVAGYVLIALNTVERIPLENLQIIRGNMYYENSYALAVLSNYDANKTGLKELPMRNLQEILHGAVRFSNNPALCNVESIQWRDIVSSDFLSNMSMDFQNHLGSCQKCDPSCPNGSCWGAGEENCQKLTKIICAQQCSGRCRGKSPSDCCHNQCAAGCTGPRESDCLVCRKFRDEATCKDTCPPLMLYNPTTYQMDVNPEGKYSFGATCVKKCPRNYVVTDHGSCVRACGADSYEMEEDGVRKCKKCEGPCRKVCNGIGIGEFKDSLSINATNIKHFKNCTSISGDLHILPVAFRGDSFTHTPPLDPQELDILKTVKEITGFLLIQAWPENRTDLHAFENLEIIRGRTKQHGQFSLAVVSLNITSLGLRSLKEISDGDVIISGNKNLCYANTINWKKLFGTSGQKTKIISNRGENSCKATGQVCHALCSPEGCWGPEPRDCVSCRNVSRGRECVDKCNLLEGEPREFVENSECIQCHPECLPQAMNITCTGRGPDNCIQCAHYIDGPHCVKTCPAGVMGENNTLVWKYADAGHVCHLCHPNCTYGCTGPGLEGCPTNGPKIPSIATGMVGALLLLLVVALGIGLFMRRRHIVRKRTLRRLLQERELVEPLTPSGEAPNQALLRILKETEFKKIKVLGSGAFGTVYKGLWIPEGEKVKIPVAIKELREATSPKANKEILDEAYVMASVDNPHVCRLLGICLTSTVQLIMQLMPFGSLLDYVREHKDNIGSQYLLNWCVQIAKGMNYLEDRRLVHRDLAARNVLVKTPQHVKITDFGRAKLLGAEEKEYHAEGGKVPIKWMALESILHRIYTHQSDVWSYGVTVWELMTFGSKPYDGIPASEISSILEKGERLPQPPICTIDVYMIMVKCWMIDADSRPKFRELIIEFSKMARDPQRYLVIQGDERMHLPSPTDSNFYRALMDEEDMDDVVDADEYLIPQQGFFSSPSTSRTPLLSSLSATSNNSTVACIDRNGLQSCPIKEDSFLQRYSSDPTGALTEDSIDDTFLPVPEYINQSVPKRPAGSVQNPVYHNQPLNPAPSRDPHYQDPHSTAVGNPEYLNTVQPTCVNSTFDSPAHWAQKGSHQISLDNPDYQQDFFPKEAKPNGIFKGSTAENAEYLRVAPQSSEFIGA
T3 sequence (P00533 25-1210 T790M/L858R): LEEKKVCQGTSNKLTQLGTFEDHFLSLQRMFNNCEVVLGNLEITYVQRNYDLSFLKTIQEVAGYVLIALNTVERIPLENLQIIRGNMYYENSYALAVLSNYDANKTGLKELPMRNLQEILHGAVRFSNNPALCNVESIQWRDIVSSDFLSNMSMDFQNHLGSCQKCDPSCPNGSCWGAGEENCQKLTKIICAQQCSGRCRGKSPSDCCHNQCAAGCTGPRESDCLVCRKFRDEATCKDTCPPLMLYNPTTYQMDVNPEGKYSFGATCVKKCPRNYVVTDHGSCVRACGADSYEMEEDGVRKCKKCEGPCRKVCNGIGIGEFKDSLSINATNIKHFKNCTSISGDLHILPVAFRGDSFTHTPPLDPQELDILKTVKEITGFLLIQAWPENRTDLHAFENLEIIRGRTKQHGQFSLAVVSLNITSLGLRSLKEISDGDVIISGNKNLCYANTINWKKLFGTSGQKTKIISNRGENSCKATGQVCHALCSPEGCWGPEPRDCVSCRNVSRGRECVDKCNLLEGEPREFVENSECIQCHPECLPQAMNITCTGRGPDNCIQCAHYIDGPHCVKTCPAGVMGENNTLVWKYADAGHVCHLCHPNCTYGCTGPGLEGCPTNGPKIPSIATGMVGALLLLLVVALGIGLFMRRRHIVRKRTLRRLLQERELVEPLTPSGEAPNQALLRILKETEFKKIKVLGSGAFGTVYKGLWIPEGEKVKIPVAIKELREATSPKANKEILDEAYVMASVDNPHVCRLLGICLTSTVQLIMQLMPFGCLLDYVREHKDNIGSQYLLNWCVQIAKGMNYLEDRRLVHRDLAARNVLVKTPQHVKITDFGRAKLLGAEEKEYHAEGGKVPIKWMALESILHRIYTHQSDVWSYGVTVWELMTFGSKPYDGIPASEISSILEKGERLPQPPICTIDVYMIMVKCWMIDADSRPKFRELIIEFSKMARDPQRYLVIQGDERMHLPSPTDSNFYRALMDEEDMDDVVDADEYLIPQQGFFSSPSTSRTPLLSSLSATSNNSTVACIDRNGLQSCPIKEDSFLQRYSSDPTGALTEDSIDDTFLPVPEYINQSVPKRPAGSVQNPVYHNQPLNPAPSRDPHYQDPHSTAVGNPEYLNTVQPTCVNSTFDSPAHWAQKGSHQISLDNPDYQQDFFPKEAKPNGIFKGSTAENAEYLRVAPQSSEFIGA
T1 sequence (P00533 25-1210 L858R): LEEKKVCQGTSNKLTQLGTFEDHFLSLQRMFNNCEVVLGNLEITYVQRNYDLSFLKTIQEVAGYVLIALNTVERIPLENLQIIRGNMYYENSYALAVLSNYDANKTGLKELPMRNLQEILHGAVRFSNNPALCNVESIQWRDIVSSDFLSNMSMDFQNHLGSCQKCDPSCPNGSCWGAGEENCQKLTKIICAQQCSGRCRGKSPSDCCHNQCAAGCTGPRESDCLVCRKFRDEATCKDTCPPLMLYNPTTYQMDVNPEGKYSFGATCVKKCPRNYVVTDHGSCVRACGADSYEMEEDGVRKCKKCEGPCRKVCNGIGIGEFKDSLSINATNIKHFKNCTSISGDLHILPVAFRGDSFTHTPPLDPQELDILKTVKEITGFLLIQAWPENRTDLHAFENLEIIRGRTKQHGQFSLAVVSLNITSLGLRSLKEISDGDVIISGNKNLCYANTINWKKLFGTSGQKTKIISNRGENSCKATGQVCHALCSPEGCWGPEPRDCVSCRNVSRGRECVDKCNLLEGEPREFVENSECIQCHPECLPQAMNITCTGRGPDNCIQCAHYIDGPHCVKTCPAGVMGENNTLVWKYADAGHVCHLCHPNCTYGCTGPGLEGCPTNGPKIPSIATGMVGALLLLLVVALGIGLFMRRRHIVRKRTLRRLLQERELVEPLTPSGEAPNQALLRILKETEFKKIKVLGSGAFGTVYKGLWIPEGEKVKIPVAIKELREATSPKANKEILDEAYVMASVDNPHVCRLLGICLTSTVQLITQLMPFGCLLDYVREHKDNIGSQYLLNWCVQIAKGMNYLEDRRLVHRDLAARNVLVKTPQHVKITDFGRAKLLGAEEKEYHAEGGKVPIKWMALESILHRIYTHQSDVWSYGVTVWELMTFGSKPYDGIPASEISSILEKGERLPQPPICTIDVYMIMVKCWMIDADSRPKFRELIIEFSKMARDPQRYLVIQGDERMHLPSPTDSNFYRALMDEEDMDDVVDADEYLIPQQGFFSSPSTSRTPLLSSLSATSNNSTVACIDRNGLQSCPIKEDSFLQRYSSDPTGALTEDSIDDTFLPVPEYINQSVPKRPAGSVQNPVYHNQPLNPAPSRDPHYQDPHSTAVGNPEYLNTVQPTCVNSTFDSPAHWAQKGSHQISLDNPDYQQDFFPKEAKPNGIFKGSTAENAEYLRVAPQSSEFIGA

As usually defined, the DC50 is the midpoint of the concentration-degradation curve. On to `O=C1CCC(Nc2ccc(C3CCN(CC(=O)N4CCN(c5ccc(-c6cc(F)c7c(c6)C(=O)N(C(C(=O)Nc6nccs6)c6ncn8c6C[C@@H](F)C8)C7)cc5)CC4)CC3)cc2)C(=O)N1` (mixture of isomers) [Compound 43, (2RS)-2-[6-[4-[4-[2-[4-[4-[[(3RS)-2,6-Dioxo-3-piperidyl]amino]phenyl]-1-piperidyl]acetyl]piperazin-1-yl]phenyl]-4-fluoro-1-oxo-isoindolin-2-yl]-2-[(6R)-6-fluoro-6,7-dihydro-5H-pyrrolo[1,2-c]imidazol-1-yl]-N-thiazol-2-yl-acetamide], for which the 50% degradation concentration (DC50) in experiment [1] turned out to be 6 nM; in experiment [2], 18 nM; in experiment [3] it was 13 nM.

Turning to `O=C1CCC(Nc2ccc(C3CCN(CC(=O)N4CCC(NC(=O)c5ccc(C#Cc6cc(F)c7c(c6)C(=O)N(C(C(=O)Nc6nccs6)c6ncn8c6CCC8)C7)cn5)CC4)CC3)cc2)C(=O)N1` (racemic) [Compound 1, 5-[2-[7-Fluoro-3-oxo-2-[(1RS)-1-(6,7-dihydro-5H-pyrrolo[1,2-c]imidazol-1-yl)-2-oxo-2-(thiazol-2-ylamino)ethyl]isoindolin-5-yl]ethynyl]-N-[1-[2-[4-[4-[[(3RS)-2,6-dioxo-3-piperidyl]amino]phenyl]-1-piperidyl]acetyl]-4-piperidyl]pyridine-2-carboxamide], the DC50 turned out to be 8 nM in experiment [1], 17 nM in experiment [2] and 6 nM in experiment [3].

Take `O=C1CCC(Nc2ccc(C3CCN(CC(=O)N4CCN(c5ccc(-c6cc(F)c7c(c6)C(=O)N(C(C(=O)Nc6nccs6)c6ncn8c6CCC8)C7)cc5)CC4)CC3)cc2)C(=O)N1` (stereo not shown) [Compound 5, 2-(6,7-dihydro-5H-pyrrolo[1,2-c]imidazol-1-yl)-2-[6-[4-[4-[2-[4-[4-[(2,6-dioxo-3-piperidyl)amino]phenyl]-1-piperidyl]acetyl]piperazin-1-yl]phenyl]-4-fluoro-1-oxo-isoindolin-2-yl]-N-thiazol-2-yl-acetamide]: the DC50 in experiment [1] amounted to 6 nM; in experiment [2] it was 17 nM; in experiment [3] it was 20 nM.

Turning to `O=C1CC[C@H](Nc2ccc(C3CCN(CC(=O)N4CCN(c5ccc(-c6cc(F)c7c(c6)C(=O)N(C(C(=O)Nc6nccs6)c6ncn8c6CCC8)C7)cc5)CC4)CC3)cc2)C(=O)N1` (stereo partly drawn) [Compound 6, 2-(6,7-dihydro-5H-pyrrolo[1,2-c]imidazol-1-yl)-2-[6-[4-[4-[2-[4-[4-[[(3S)-2,6-dioxo-3-piperidyl]amino]phenyl]-1-piperidyl]acetyl]piperazin-1-yl]phenyl]-4-fluoro-1-oxo-isoindolin-2-yl]-N-thiazol-2-yl-acetamide], the figures for the DC50 in experiment [1], in experiment [2] and in experiment [3] were 7 nM, 8 nM and 22 nM, respectively.

For `O=C1CCC(Nc2ccc(C3CCN(CC(=O)N4CCN(c5ccc(-c6cc(F)c7c(c6)C(=O)N(C(C(=O)Nc6nccs6)c6ncn8c6CCC8)C7)cc5)CC4)CC3)c(C(F)F)c2)C(=O)N1` (stereo not shown) [Compound 15, 2-[6-[4-[4-[2-[4-[2-(difluoromethyl)-4-[(2,6-dioxo-3-piperidyl)amino]phenyl]-1-piperidyl]acetyl]piperazin-1-yl]phenyl]-4-fluoro-1-oxo-isoindolin-2-yl]-2-(6,7-dihydro-5H-pyrrolo[1,2-c]imidazol-1-yl)-N-thiazol-2-yl-acetamide], the values for the DC50 in experiment [1], in experiment [2] and in experiment [3] were 6 nM, 10 nM and 34 nM, respectively.

With `O=C1CC[C@H](Nc2ccc(C3CCN(CC(=O)N4CC5(CCN(c6ccc(-c7cc(F)c8c(c7)C(=O)N(C(C(=O)Nc7nccs7)c7ncn9c7CCC9)C8)cc6)CC5)C4)CC3)c(F)c2)C(=O)N1` (stereo partly drawn) [Compound 46, 2-(6,7-dihydro-5H-pyrrolo[1,2-c]imidazol-1-yl)-2-(6-(4-(2-(2-(4-(4-(((S)-2,6-dioxopiperidin-3-yl)amino)-2-fluorophenyl)piperidin-1-yl)acetyl)-2,7-diazaspiro[3.5]nonan-7-yl)phenyl)-4-fluoro-1-oxoisoindolin-2-yl)-N-(thiazol-2-yl)acetamide], the 50% degradation concentration (DC50) in experiment [1] and in experiment [3] was 51 nM each time.

Turning to `Cn1nc(N2CCC(=O)NC2=O)c2ccc(C3CCN(CC(=O)N4CC5(C4)CN(c4ccc(-c6cc(F)c7c(c6)C(=O)N(C(C(=O)Nc6nccs6)c6ncn8c6CCC8)C7)cc4)C5)CC3)cc21` (stereo not shown) [Compound 49, 2-(6,7-dihydro-5H-pyrrolo[1,2-c]imidazol-1-yl)-2-[6-[4-[2-[2-[4-[3-(2,4-dioxohexahydropyrimidin-1-yl)-1-methyl-indazol-6-yl]-1-piperidyl]acetyl]-2,6-diazaspiro[3.3]heptan-6-yl]phenyl]-4-fluoro-1-oxo-isoindolin-2-yl]-N-thiazol-2-yl-acetamide], the 50% degradation concentration (DC50) was determined as 10 nM in experiment [1] and 18 nM in experiment [3].

On to `O=C1CC[C@H](Nc2ccc(C3CCN(CC(=O)N4CC5(C4)CN(c4ccc(-c6cc(F)c7c(c6)C(=O)N(C(C(=O)Nc6ccccn6)c6ncn8c6CCC8)C7)cc4)C5)CC3)c(F)c2)C(=O)N1` (stereo partly drawn) [Compound 53, 2-(6,7-dihydro-5H-pyrrolo[1,2-c]imidazol-1-yl)-2-[6-[4-[2-[2-[4-[4-[[(3S)-2,6-dioxo-3-piperidyl]amino]-2-fluoro-phenyl]-1-piperidyl]acetyl]-2,6-diazaspiro[3.3]heptan-6-yl]phenyl]-4-fluoro-1-oxo-isoindolin-2-yl]-N-(2-pyridyl)acetamide], for which the DC50 in experiment [1] turned out to be 37 nM; in experiment [3] it was 64 nM.

Regarding `O=C1CCC(Nc2ccc(C3CCN(CC(=O)N4CCN(Cc5ccc(-c6cc(F)c7c(c6)C(=O)N(C(C(=O)Nc6nccs6)c6ncn8c6CCC8)C7)cc5)CC4)CC3)cc2)C(=O)N1` (stereo not shown) [Compound 56, 2-(6,7-dihydro-5H-pyrrolo[1,2-c]imidazol-1-yl)-2-[6-[4-[[4-[2-[4-[4-[(2,6-dioxo-3-piperidyl)amino]phenyl]-1-piperidyl]acetyl]piperazin-1-yl]methyl]phenyl]-4-fluoro-1-oxo-isoindolin-2-yl]-N-thiazol-2-yl-acetamide], the DC50 in experiment [1] amounted to 14 nM; in experiment [3], 20 nM.

Consider `O=C1CC[C@H](Nc2ccc(C3CCN(CC(=O)N4CCC(Cc5ccc(-c6cc(F)c7c(c6)C(=O)N(C(C(=O)Nc6nccs6)c6ncn8c6CCC8)C7)cc5)CC4)CC3)c(F)c2)C(=O)N1` (stereo partly drawn) [Compound 60, 2-(6,7-dihydro-5H-pyrrolo[1,2-c]imidazol-1-yl)-2-[6-[4-[[1-[2-[4-[4-[[(3S)-2,6-dioxo-3-piperidyl]amino]-2-fluoro-phenyl]-1-piperidyl]acetyl]-4-piperidyl]methyl]phenyl]-4-fluoro-1-oxo-isoindolin-2-yl]-N-thiazol-2-yl-acetamide], for which the 50% degradation concentration (DC50) in experiment [1] was 28 nM; in experiment [3] it was 52 nM.

`O=C1CCC(Nc2ccc(C3CCN(CC(=O)N4CCN(c5ccc(-c6cc(F)c7cn(C(C(=O)Nc8nccs8)c8ncn9c8CCC9)nc7c6)cn5)CC4)CC3)nc2)C(=O)N1` (stereo not shown) [Compound 66, 2-(6,7-dihydro-5H-pyrrolo[1,2-c]imidazol-1-yl)-2-[6-[6-[4-[2-[4-[5-[(2,6-dioxo-3-piperidyl)amino]-2-pyridyl]-1-piperidyl]acetyl]piperazin-1-yl]-3-pyridyl]-4-fluoro-indazol-2-yl]-N-thiazol-2-yl-acetamide]: the DC50 in experiment [1] stood at 31 nM; in experiment [3], 33 nM.

In the case of `Cn1nc(N2CCC(=O)NC2=O)c2ccc(C3CCN(CC(=O)N4CCN(c5ccc(-c6cc(F)c7cn(C(C(=O)Nc8nccs8)c8ncn9c8CCC9)nc7c6)cn5)CC4)CC3)cc21` (stereo not shown) [Compound 67, 2-(6,7-dihydro-5H-pyrrolo[1,2-c]imidazol-1-yl)-2-[6-[6-[4-[2-[4-[3-(2,4-dioxohexahydropyrimidin-1-yl)-1-methyl-indazol-6-yl]-1-piperidyl]acetyl]piperazin-1-yl]-3-pyridyl]-4-fluoro-indazol-2-yl]-N-thiazol-2-yl-acetamide], the half-maximal degradation concentration (DC50) in experiment [1] turned out to be 50 nM; in experiment [3], 27 nM.

On to `O=C1CC[C@H](Nc2ccc(C3CCN(CC(=O)N4CCN(c5ccc(-c6cc(F)c7cn(C(C(=O)Nc8nccs8)c8ncn9c8CCC9)nc7c6)cn5)CC4)CC3)c(F)c2)C(=O)N1` (stereo partly drawn) [Compound 68, 2-(6,7-dihydro-5H-pyrrolo[1,2-c]imidazol-1-yl)-2-(6-(6-(4-(2-(4-(4-(((S)-2,6-dioxopiperidin-3-yl)amino)-2-fluorophenyl)piperidin-1-yl)acetyl)piperazin-1-yl)pyridin-3-yl)-4-fluoro-2H-indazol-2-yl)-N-(thiazol-2-yl)acetamide], for which the figures for the half-maximal degradation concentration (DC50) in experiment [1] and in experiment [3] were 34 nM and 28 nM, respectively.
